# Reference: patent US20120208809A1, “9H-PYRROLO[2,3-B: 5,4-C'] DIPYRIDINE AZACARBOLINE DERIVATIVES, PREPARATION THEREOF, AND THERAPEUTIC USE THEREOF” (SANOFI, priority 2009, published 2012)
# What was measured:
# [1] = molecular target: T1, Pim-1 (Homo sapiens, UniProt P11309); test: TR-FRET assay of Pim kinase activity (phosphorylation of Bad Ser112), Pim-1; type: biochemical; conditions: ATP 40 μM, read-out: IC50 Pim1
# T1 construct: full-length human recombinant His6-labelled Pim-1, Pim-2 or Pim-3 protein; His6; made in house
# T1 sequence (P11309 whole entry): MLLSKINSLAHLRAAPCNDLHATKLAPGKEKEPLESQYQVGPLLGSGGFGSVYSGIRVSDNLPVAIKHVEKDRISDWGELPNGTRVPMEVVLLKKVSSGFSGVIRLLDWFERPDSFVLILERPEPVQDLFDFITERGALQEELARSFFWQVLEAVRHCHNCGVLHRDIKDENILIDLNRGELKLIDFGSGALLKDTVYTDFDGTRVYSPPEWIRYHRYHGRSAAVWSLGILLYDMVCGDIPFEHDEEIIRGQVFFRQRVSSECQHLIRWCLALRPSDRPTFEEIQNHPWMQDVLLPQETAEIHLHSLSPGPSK
# Summary of the method: (§1)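 Full-length His6-tagged human Pim-1, -2 or -3 phosphorylate full-length His6-Bad at 40 μM ATP; phospho-Ser112 detected by TR-FRET (Eu anti-phosphoBad, APC anti-His6), 665/615 nm ratio. Compounds run at 10 concentrations in duplicate, typically top 30 μM; IC50 from 4-parameter logistic fit.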
# [2] = molecular target: T2, Pim-2 (Homo sapiens, UniProt Q9P1W9); test: TR-FRET assay of Pim kinase activity (phosphorylation of Bad Ser112), Pim-2; type: biochemical; conditions: ATP 40 μM, read-out: IC50 Pim2
# T2 construct: full-length human recombinant His6-labelled Pim-1, Pim-2 or Pim-3 protein; His6; made in house
# T2 sequence (Q9P1W9 whole entry): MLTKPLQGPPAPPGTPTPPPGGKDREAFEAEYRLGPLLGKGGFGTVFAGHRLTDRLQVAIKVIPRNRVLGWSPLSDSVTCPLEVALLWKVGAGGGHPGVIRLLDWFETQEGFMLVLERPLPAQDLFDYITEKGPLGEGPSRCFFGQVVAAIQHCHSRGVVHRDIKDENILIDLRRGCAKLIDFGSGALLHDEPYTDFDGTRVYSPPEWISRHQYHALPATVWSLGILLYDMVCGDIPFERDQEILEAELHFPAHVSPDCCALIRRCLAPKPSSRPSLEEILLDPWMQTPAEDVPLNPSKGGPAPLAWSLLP
# Summary of the method: as §1
# [3] = molecular target: T3, Pim-3 (Homo sapiens, UniProt Q86V86); test: TR-FRET assay of Pim kinase activity (phosphorylation of Bad Ser112), Pim-3; type: biochemical; conditions: ATP 40 μM, read-out: IC50 Pim3
# T3 construct: full-length human recombinant His6-labelled Pim-1, Pim-2 or Pim-3 protein; His6; made in house
# Summary of the method: as §1
# [4] = molecular target: CDK1 (Homo sapiens, UniProt P06493); test: Biochemical results, IC50 CDK1
# Chain of CDK1 (P06493 whole entry, species assumed): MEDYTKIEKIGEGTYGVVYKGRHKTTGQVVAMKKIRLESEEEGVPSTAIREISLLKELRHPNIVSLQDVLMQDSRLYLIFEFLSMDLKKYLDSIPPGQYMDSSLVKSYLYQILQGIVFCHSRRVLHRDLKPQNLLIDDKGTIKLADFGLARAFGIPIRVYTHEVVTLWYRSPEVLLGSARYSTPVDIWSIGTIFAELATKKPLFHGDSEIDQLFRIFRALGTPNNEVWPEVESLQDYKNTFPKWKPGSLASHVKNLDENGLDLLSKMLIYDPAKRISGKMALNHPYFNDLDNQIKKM
# Chain of CDK1 (P14635 whole entry partner, species assumed): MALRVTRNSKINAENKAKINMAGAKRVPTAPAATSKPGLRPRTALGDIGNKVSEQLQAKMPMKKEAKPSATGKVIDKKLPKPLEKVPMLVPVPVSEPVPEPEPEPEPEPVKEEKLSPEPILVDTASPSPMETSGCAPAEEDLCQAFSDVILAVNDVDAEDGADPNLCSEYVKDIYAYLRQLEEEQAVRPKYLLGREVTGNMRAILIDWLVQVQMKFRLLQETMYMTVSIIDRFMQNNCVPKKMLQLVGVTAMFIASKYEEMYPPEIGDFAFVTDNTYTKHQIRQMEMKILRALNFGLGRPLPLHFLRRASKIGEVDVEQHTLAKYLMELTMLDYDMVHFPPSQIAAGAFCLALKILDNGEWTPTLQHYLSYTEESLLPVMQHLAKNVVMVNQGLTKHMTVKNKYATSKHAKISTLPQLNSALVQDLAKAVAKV
# [5] = molecular target: PLK1 (Homo sapiens, UniProt P53350); test: Biochemical results, IC50 PLK1
# Chain of PLK1 (P53350 whole entry, species assumed): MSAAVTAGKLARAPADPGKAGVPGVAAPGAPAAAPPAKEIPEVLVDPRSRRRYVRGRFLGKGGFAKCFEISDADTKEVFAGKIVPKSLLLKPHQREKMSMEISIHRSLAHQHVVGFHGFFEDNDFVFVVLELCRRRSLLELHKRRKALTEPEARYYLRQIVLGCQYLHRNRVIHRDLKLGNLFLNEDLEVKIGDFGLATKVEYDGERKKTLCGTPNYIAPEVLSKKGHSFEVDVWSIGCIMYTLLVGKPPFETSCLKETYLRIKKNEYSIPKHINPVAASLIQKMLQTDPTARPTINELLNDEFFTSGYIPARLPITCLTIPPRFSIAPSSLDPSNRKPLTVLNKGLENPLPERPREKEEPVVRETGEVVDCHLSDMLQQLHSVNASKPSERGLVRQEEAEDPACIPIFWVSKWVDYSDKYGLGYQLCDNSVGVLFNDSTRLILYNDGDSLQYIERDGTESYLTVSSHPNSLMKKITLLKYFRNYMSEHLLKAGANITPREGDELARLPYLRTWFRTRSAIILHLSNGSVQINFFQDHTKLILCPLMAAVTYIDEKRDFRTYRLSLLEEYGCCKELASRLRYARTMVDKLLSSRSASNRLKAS
# [6] = system: EOL-1; test: Cell viability assay (CellTiter-Blue), EOL-1; type: cell-based; conditions: Homo sapiens, EOL1, read-out: EC50 EOL-1 μM (eosinophilic leukaemia), EOL-1 cells, read-out: EC50 EOL-1 μM (lymphoma);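 also: EOL-1 is an acute myeloid eosinophilic leukaemia line not a lymphoma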
# Excerpt: (§2) The representative compounds of the invention are also screened as regards their effects on cell proliferation and viability, using a variety of tumoral cell lines of human source, representative of different pathological indications. These cell lines include:
# Models of Haematological Cancers: • TF-1 (acute myelogenic leukaemia; AML M6 at the time of diagnosis); • K G-1 (AML; erythroleukaemia evolving into AML); • KG-1a (AML; subclone derived from immature KG-1); • EOL-1 (AML: eosinophilic leukaemia); • PL-21 (AML; M3); • ML-2 (AML; T-NHL evolving into T-ALL evolving into AML M4); • HL-60 (AML, M3); • Kasumi-1 (AML); • GDM-1 (AML); • K-562 (CML—chronic myelogenic leukaemia; blastic crisis); • JURL-MK1 (CML; blastic crisis); • DND-41 (T-ALL—T-cell acute lymphoblastic leukaemia); • Jurkat (T-ALL); NALM-6 (B-ALL B-cell ALL); • CEM (ALL; lymphosarcoma evolving into ALL); • Jeko-1 (B-NHL—B-cell non-Hodgkin lymphoma; lymphoma with coat cells derived from a large-cell variant in leukaemic transformation); • WSU-DLCL2 (B-NHL; diffuse lymphoma with large B cells); • RL (B-NHL; undifferentiated diffuse); • OCl-Ly10 (B-NHL); • DoHH-2 (B-NHL); • RPMI-8226 (MM—multiple myelomas); • JVM-2 (B-CLL—B-cell chronic lymphocytic leukaemia); and • JVM-3 (B-CLL).
# (§3) In order to measure the viability, the tumour cells are incubated in 96-well or 384-well format for 48, 72 or 96 hours, preferably 72 hours, with a compound of the invention at dilutions of a factor 3, with, in general, nine doses in total, the highest dose being equal to 10 μM or 30 μM. The cell viability is evaluated by adding CellTiter-Blue® (Promega, Madison, Wis., United States) for 4 hours and endpoint readings are taken using a SpectraMax Genmini EM plate reader (Molecular Devices, Sunnyvale, Calif., United States). The CellTiter-Blue® cell viability assay measures the ability of the cells in culture to reduce resazurin to resorufin, the intensity of the fluorescence signal being directly proportional to the number of live cells. The EC50 represents the concentration of compound that leads to a 50% reduction of the viability/proliferative expansion of the cells.
# [7] = system: MV4-11; test: Cell viability assay (CellTiter-Blue), MV4-11; type: cell-based; conditions: Homo sapiens, read-out: EC50 MV4-11 μM (acute myeloid leukemia), MV4-11 cells, read-out: EC50 MV4-11 μM (myeloma)
# Experimental: as §2, §3
# [8] = system: phosphoBAD (DND-41); test: Level of phosphorylation of Bad by ELISA, DND-41 cell line; type: cell-based; conditions: Homo sapiens, DND41, DND-41 cells, 3 hours at 37° C.
# Experimental: The activity of the molecules is evaluated on the JEKO or DND-41 cell line by measuring the level of phosphorylation of Bad and the total Bad content, via the ELISA technique.
# The JEKO or DND-41 cells are resuspended at a concentration of 500 000 cells per ml. The cells are then diluted in RPMI-1640 medium containing 20% foetal calf serum. 225 μl of cells are placed in a plate. Serial dilutions of the molecules are then performed (8 points, three-fold dilution, range started at 10 mM). Each dilution point is then diluted to 1/100 in medium. Next, 25 μl of each of the concentrations are added to the cells and then incubated for 3 hours at 37° C.
# 100 μl of the cells are transferred into a plate treated with poly-D-Lysine. The plate is then incubated for 5-10 minutes at 37° C. and then centrifuged for 5 minutes at 1500 rpm. A volume of 100 μl of 8% fixing solution (solution of formaldehyde in PBS buffer) is added to each of the wells. After covering with a self-adhesive film and a lid, the plate is incubated for 20 minutes at room temperature and then stored at 4° C. overnight.
# Next, the liquid is removed and two successive washes are performed with washing buffer. 100 μl of quenching buffer are added, followed by incubating for 15 minutes at room temperature. After washing, 100 μl of […] at room temperature. After washing, 50 μl of primary antibody diluted to 1/250 for pBAD (Cell Signaling Cat#5284) and to 1/500 for Bad (MBL Cat#591) are added to each of the plates. Each plate is incubated for 2 hours at room temperature. After two washes, 50 μl of secondary antibody (diluted to 1/16) are added to the pBAD plate (tebu-bio ref; FE-021) and 50 μl of the HRP-conjugated IgG secondary antibody (Santa Cruz Cat #SC-2004; diluted to 1/1000) are added to the Bad plate. Incubation for 1 hour at room temperature is performed. Four washes with the washing solution are performed, followed by three washes with PBS. Finally, 100 μl of the developing solution are added, followed by incubation for 10 minutes. Finally, 100 μl of the quenching solution are added, before reading at 450 nm.
IC50 [1],IC50 [2],IC50 [3],IC50 [4],IC50 [5],EC50 [7],IC50 [8],Compound,EC50 [6]
< 0.1 µM,0.1 to 1 µM,< 0.1 µM,0.1 to 1 µM,1 to 5 µM,0.1 to 1 µM,1 to 5 µM,"CN(C)CCCCNC(=O)c1ccc(-c2c(F)cnc3[nH]c4cnc(-c5cccnc5)cc4c23)cc1 [Example 75, N-[4-(dimethylamino)butyl]-4-[3-fluoro-6-(pyridin-3-yl)-9H-pyrrolo[2,3-b:5,4-c′]dipyridin-4-yl]benzamide]",0.1 to 1 µM
< 0.1 µM,0.1 to 1 µM,< 0.1 µM,1 to 5 µM,0.1 to 1 µM,0.1 to 1 µM,0.1 to 1 µM,"CC(C)N(CCNC(=O)c1ccc(-c2c(F)cnc3[nH]c4cnc(-c5cccnc5)cc4c23)cc1)C(C)C [Example 66, N-[2-(dipropan-2-ylamino)ethyl]-4-[3-fluoro-6-(pyridin-3-yl)-9H-pyrrolo[2,3-b:5,4-c′]dipyridin-4-yl]benzamide]",< 0.1 µM
< 0.1 µM,0.1 to 1 µM,< 0.1 µM,1 to 5 µM,0.1 to 1 µM,0.1 to 1 µM,0.1 to 1 µM,"CN(C)CC(C)(C)CNC(=O)c1ccc(-c2c(F)cnc3[nH]c4cnc(-c5cccnc5)cc4c23)cc1 [Example 52, N-[3-(dimethylamino)-2,2-dimethylpropyl]-4-[3-fluoro-6-(pyridin-3-yl)-9H-pyrrolo[2,3-b:5,4-c′]dipyridin-4-yl]benzamide]",< 0.1 µM
< 0.1 µM,0.1 to 1 µM,< 0.1 µM,0.1 to 1 µM,1 to 5 µM,0.1 to 1 µM,1 to 5 µM,"CN(C)CCCN(C)C(=O)c1ccc(-c2c(F)cnc3[nH]c4cnc(-c5cccnc5)cc4c23)cc1 [Example 59, N-[3-(dimethylamino)propyl]-4-[3-fluoro-6-(pyridin-3-yl)-9H-pyrrolo[2,3-b:5,4-c′]dipyridin-4-yl]-N-methylbenzamide]",0.1 to 1 µM
< 0.1 µM,< 0.1 µM,< 0.1 µM,–,–,< 0.1 µM,0.1 to 1 µM,"COCCOc1cnc2[nH]c3cnc(-c4cccnc4)cc3c2c1-c1ccc(C(=O)NCCN(C)C)cc1 [Example 120, N-[2-(dimethylamino)ethyl]-4-[3-(2-methoxyethoxy)-6-(pyridin-3-yl)-9H-pyrrolo[2,3-b:5,4-c′]dipyridin-4-yl]benzamide]",< 0.1 µM
< 0.1 µM,0.1 to 1 µM,< 0.1 µM,1 to 5 µM,0.1 to 1 µM,0.1 to 1 µM,0.1 to 1 µM,"CN(CC1CCCCN1C)C(=O)c1ccc(-c2c(F)cnc3[nH]c4cnc(-c5cccnc5)cc4c23)cc1 (stereo not drawn) [Example 64, 4-[3-fiuoro-6-(pyridin-3-yl)-9H-pyrrolo[2,3-b:5,4-c′]dipyridin-4-yl]-N-methyl-N-[(1-methylpiperidin-2-yl)methyl]benzamide]",0.1 to 1 µM
< 0.1 µM,< 0.1 µM,< 0.1 µM,0.1 to 1 µM,0.1 to 1 µM,0.1 to 1 µM,1 to 5 µM,"NCCNC(=O)c1ccc(-c2c(F)cnc3[nH]c4cnc(-c5cccnc5)cc4c23)cc1 [Example 28, N-(2-aminoethyl)-4-[3-fluoro-6-(pyridin-3-yl)-9H-pyrrolo[2,3-b:5,4-c′]dipyridin-4-yl]benzamide]",0.1 to 1 µM
< 0.1 µM,< 0.1 µM,< 0.1 µM,0.1 to 1 µM,1 to 5 µM,–,1 to 5 µM,"CN(C)CCNC(=O)c1ccc(-c2c(F)cnc3[nH]c4cnc(-c5cnn(C)c5)cc4c23)cc1 [Example 37, N-[3-(dimethylamino)ethyl]-4-[3-fluoro-6-(1-methyl-1H-pyrazol-4-yl)-9H-pyrrolo[2,3-b:5,4-c′]dipyridin-4-yl]benzamide]",–
